Key:
[1] = target: T1, unphosphorylated T315I Abl kinase domain (Mus musculus, UniProt P00520, T315I); experiment: c-Abl T315I 0P bioassay (pyruvate kinase/lactate dehydrogenase coupled enzyme assay); assay type: biochemical; conditions: zero phosphorylation state (0P), 10 μM ATP, read-out: AbI T315I 0P IC50
T1 construct: purified and unphosphorylated T315I Abl kinase domain; made in house; host or cells: E. coli BL21(DE3) (Codon+RIL or pSA0145 strain)
T1 sequence (P00520 242-493 T315I limits assumed): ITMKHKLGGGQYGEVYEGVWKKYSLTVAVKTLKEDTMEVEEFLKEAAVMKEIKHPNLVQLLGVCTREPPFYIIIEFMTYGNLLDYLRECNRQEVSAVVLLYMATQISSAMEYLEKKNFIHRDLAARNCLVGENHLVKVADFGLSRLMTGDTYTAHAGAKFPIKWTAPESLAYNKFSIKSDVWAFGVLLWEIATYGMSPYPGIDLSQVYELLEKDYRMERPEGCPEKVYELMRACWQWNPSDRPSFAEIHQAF

Ba/F3 cells, ABL1 T315I = Ba/F3 cells, ABL1 T315I (Homo sapiens, UniProt P00519, T315I, cells depend on it); experiment: 96-well XTT cell survival assay, Ba/F3 ABL1 T315I; assay type: cell-based; conditions: 72 hours, read-out: ABL1 T315I XTT [Ba/F3] IC50
Procedure, shortened: (§1)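 Ba/F3 cells carrying wild-type or T315I ABL1 were seeded at 5000-8000 per well with graded compound concentrations in duplicate and grown 72 hours at 37° C. Survival was read by XTT/PMS reduction after a further 2-6 h, as absorbance at 405 nm with 650 nm background correction.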

Ba/F3 cells, ABL1 WT = Ba/F3 cells, ABL1 WT (Homo sapiens, UniProt P00519); experiment: 96-well XTT cell survival assay, Ba/F3 ABL1 WT; assay type: cell-based; conditions: 72 hours, read-out: ABL1 WT XTT [Ba/F3] IC50
Procedure, shortened: as §1

Structure (SMILES)	IC50 [1]	GI50 (Ba/F3 cells, ABL1 T315I)	GI50 (Ba/F3 cells, ABL1 WT)
COc1ccccc1-c1n[nH]c2ncc(-c3cccc(C(O)C(=O)N(C)C)c3)cc12 (stereo not drawn)	< 50 nM	< 1000 nM	< 1000 nM
COc1ccccc1-c1n[nH]c2ncc(-c3cccc(C(O)C(=O)NCCN(C)C)c3)cc12 (stereo not drawn)	< 50 nM	> 1000 nM	< 1000 nM
COc1ccccc1-c1n[nH]c2ncc(-c3cccc(C(OC)C(=O)N(C)CCN(C)C)c3)cc12 (stereo not drawn)	< 50 nM	< 1000 nM	< 1000 nM
COc1ccccc1-c1n[nH]c2ncc(-c3cccc(C(N)C(=O)N(C)C)c3)cc12 (stereo not drawn)	< 50 nM	< 1000 nM	< 1000 nM
COc1ccccc1-c1n[nH]c2ncc(-c3cccc(C(N)C(=O)N(C)CCN(C)C)c3)cc12 (stereo not drawn)	< 50 nM	> 1000 nM	> 1000 nM
COc1ccccc1-c1n[nH]c2ncc(-c3cccc(C(O)c4ncco4)c3)cc12 (stereo not drawn)	< 50 nM	> 1000 nM	< 1000 nM
COc1ccccc1-c1c[nH]c2ncc(-c3cccc(C(O)CN)c3)cc12 (stereo not drawn)	< 50 nM	> 1000 nM	> 1000 nM
COc1ccccc1-c1c[nH]c2ncc(-c3cccc(C(O)C(=O)N(C)C)c3)cc12 (stereo not drawn)	< 50 nM	< 1000 nM	< 1000 nM
COc1ccccc1-c1c[nH]c2ncc(-c3cccc(C(O)C(=O)N(C)CCN(C)C)c3)cc12 (stereo not drawn)	< 50 nM	< 1000 nM	< 1000 nM
COc1ccccc1-c1n[nH]c2ncc(-c3cccc(C(O)C(=O)N(C)C4CCN(C)C4)c3)cc12 (stereo not drawn)	< 50 nM	< 1000 nM	< 1000 nM
COc1ccccc1-c1n[nH]c2ncc(-c3cccc(C(O)C(=O)N(C)C4CCS(=O)(=O)C4)c3)cc12 (stereo not drawn)	< 50 nM	> 1000 nM	< 1000 nM
COc1ccccc1-c1c[nH]c2ncc(-c3cccc(C(N)C(=O)N(C)C)c3)cc12 (stereo not drawn)	< 50 nM	< 1000 nM	< 1000 nM
COc1ccccc1-c1c[nH]c2ncc(-c3cccc(C(N)C(=O)N(C)CCN(C)C)c3)cc12 (stereo not drawn)	< 50 nM	> 1000 nM	> 1000 nM
CN(C)C(=O)C(O)c1cncc(-c2cnc3[nH]cc(-c4cccc(Cl)c4)c3c2)c1 (stereo not drawn) [drawing 431]	< 50 nM	< 1000 nM	< 1000 nM
CN(C)C(=O)C(O)c1cncc(-c2cnc3[nH]cc(-c4ccnn4C)c3c2)c1 (stereo not drawn) [drawing 464]	50 to 500 nM	> 1000 nM	> 1000 nM
CN(C)C(=O)C(O)c1cncc(-c2cnc3[nH]cc(-c4ccnn4C)c3c2)c1 (stereo not drawn) [drawing 465]	< 50 nM	> 1000 nM	> 1000 nM

Further lines, with some results ahead:

IC50 [1]	Structure (SMILES)	GI50 (Ba/F3 cells, ABL1 T315I)	GI50 (Ba/F3 cells, ABL1 WT)
< 50 nM	COc1ccccc1-c1n[nH]c2ncc(-c3cccc(C(N)C(=O)N4CC(O)C4)c3)cc12 (stereo not drawn)	> 1000 nM	> 1000 nM
< 50 nM	COc1ccccc1-c1n[nH]c2ncc(-c3cccc(C(=O)C(=O)N(C)C)c3)cc12	> 1000 nM	> 1000 nM
< 50 nM	COc1ccccc1-c1n[nH]c2ncc(-c3cccc(C(=O)C(=O)N(C)CCN(C)C)c3)cc12	< 1000 nM	< 1000 nM
< 50 nM	COc1ccccc1-c1n[nH]c2ncc(-c3cccc(C(=O)C(=O)N4CC(O)C4)c3)cc12	> 1000 nM	> 1000 nM
< 50 nM	COc1ccccc1-c1n[nH]c2ncc(-c3cccc(C(O)CO)c3)cc12 (stereo not drawn)	> 1000 nM	< 1000 nM
< 50 nM	CNC(=O)C(O)c1cccc(-c2cnc3[nH]nc(-c4ccccc4OC)c3c2)c1 (stereo not drawn)	< 1000 nM	< 1000 nM
< 50 nM	COc1ccccc1-c1n[nH]c2ncc(-c3cccc(C(O)C(=O)N4CC(O)C4)c3)cc12 (stereo not drawn)	> 1000 nM	> 1000 nM
< 50 nM	COc1ccccc1-c1c[nH]c2ncc(-c3cccc(C(O)C(=O)N4CC(O)C4)c3)cc12 (stereo not drawn)	> 1000 nM	< 1000 nM
< 50 nM	COc1ccccc1-c1n[nH]c2ncc(-c3cccc(C(O)C(N)=O)c3)cc12 (stereo not drawn)	< 1000 nM	< 1000 nM
